In ChEMBL document CHEMBL5252515, “Discovery of 6-Amino-2-{[(1S)-1-methylbutyl]oxy}-9-[5-(1-piperidinyl)pentyl]-7,9-dihydro-8H-purin-8-one (GSK2245035), a Highly Potent and Selective Intranasal Toll-Like Receptor 7 Agonist for the Treatment of Asthma” (J Med Chem, 2016):
Activity calls are given as the source filed them. No cut-off for these calls is given here.

Legend:
[1] = molecular target: T1, Toll-like receptor 7 (Macaca fascicularis) (UniProt B3Y652); assay: In vivo target occupancy at TLR7 in cynomolgus monkey assessed as fold increase in OAS1 mRNA expression in nasal scrape at 30 ng/kg administered intranasally incubated for 24 hrs by TaqMan analysis (reference value: 1.2); assay type: functional
T1 sequence (whole entry): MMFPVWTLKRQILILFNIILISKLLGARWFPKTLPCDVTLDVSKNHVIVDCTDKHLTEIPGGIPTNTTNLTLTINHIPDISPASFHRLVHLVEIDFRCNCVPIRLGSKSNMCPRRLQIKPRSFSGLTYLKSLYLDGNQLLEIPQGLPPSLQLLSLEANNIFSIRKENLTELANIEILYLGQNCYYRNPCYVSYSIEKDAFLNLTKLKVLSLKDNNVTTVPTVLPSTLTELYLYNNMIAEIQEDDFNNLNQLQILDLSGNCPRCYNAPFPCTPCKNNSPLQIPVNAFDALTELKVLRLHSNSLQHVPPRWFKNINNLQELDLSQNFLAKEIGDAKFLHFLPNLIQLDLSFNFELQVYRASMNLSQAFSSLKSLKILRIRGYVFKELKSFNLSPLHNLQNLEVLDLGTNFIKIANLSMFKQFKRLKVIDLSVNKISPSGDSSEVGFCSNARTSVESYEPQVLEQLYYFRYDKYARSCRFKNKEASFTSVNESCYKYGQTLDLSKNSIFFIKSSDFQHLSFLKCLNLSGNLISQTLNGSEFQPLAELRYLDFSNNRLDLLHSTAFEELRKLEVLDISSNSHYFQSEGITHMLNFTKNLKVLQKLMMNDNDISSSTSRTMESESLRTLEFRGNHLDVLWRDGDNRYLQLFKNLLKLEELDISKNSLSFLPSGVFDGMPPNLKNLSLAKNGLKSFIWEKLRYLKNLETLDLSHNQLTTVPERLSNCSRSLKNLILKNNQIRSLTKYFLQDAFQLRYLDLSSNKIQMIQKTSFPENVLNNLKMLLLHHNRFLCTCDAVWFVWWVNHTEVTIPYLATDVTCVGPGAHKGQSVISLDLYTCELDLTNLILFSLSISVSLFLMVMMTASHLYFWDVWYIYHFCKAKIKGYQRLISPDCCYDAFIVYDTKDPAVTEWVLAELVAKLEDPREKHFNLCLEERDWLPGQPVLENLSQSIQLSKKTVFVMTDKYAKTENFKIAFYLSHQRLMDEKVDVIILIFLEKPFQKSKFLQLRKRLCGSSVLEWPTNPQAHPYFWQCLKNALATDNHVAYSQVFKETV

PBMC [2] = assay: Immunomodulatory activity in human PBMC assessed as IL-10 production in presence of allergen timothy grass; assay type: functional, cell-based
[3] = molecular target: T1, Toll-like receptor 7 (Macaca fascicularis); assay: In vivo target occupancy at TLR7 in cynomolgus monkey assessed as fold increase in OAS1 mRNA expression in nasal scrape at 3 ng/kg administered intranasally incubated for 24 hrs by TaqMan analysis (reference value: 1.2); assay type: functional
[4] = Ocular toxicity in monkey assessed as aqueous cells and aqueous flare at 1000 ug/ml, post single dose administration after 6 hrs; parameters: species or system Macaca mulatta; settings: rhesus monkey, in vivo, dose 1000 µg/ml
Rattus norvegicus = assay: Induction of IFNalpha production in rat at 0.4 mg/kg measured after 2 hrs; assay type: functional, organism-based
[5] = Ocular toxicity in monkey at 10 ug/ml; parameters: species or system Macaca mulatta; settings: rhesus monkey, in vivo; dose 10 µg/ml
Mus musculus [6] = assay: Increase in IP-10 level in BALB/c mouse serum at 0.1 mg/kg, administered intranasally after 2 hrs by ELISA; assay type: functional, organism-based
Mus musculus [7] = assay: Increase in IP-10 level in intranasally dosed BALB/c mouse nasal lavage after 6 hrs; assay type: functional, organism-based
Toll-like receptor 7 [8] = molecular target: T2, Toll-like receptor 7 (Homo sapiens, UniProt Q9NYK1); assay: Agonist activity at TLR7 (unknown origin) expressed in human U2OS cells assessed as induction of NF-kappaB driven TNFalpha production by luciferase reporter assay; assay type: cell-based
T2 sequence (Q9NYK1 whole entry): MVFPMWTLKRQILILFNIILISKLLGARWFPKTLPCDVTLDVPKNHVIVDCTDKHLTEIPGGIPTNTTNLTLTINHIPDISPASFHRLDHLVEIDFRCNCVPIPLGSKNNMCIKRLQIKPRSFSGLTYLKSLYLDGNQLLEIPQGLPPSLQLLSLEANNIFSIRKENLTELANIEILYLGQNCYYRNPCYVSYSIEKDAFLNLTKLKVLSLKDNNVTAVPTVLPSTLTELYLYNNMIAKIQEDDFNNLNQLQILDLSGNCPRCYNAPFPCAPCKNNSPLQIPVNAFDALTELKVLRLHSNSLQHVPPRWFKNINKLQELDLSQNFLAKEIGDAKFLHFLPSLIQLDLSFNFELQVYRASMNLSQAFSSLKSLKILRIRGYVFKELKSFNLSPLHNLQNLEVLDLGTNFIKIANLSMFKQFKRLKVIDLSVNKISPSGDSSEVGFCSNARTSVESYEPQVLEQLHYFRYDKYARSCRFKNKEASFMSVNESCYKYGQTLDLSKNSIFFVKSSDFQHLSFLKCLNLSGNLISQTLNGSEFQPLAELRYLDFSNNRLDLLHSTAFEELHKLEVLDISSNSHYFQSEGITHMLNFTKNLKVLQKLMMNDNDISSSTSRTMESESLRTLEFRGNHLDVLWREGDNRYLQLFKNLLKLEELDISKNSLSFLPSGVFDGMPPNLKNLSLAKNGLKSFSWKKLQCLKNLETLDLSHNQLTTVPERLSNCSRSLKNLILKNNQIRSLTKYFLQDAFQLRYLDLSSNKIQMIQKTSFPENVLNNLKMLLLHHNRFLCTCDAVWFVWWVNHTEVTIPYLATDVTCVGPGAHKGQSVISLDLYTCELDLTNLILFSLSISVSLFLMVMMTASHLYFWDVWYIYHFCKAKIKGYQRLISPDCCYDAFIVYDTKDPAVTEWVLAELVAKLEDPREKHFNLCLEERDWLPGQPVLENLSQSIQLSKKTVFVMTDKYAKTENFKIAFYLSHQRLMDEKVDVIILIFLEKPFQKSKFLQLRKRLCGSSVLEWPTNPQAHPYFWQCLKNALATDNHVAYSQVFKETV

[9] = molecular target: T1, Toll-like receptor 7 (Macaca fascicularis); assay: In vivo target occupancy at TLR7 in cynomolgus monkey assessed as fold increase in IFIT2 mRNA expression in nasal scrape at 3 ng/kg administered intranasally incubated for 24 hrs by TaqMan analysis (reference value: 2.1); assay type: functional
[10] = Bioavailability in rat after intranasal administration; assay type: ADME, organism-based; settings: in vivo, inhaled or intranasal
[11] = Ocular toxicity in monkey at 1000 ug/ml post single dose administration after 48 hrs; parameters: species or system Macaca mulatta; settings: rhesus monkey, in vivo, dose 1000 µg/ml
Toll-like receptor 7 [12] = molecular target: T3, Toll-like receptor 7 (Macaca fascicularis, UniProt B3Y652); assay: Agonist activity at TLR7 in cynomolgus monkey whole blood assessed as induction of TNFalpha production; assay type: tissue-based
T3 sequence (B3Y652 whole entry): T1 sequence (whole entry)

PBMC [13] = assay: Immunomodulatory activity in human PBMC assessed as reduction in timothy grass induced IL-13 level after 6 days; assay type: functional, cell-based; settings: dose 0.01-10000 nM, time 6.0 day
Toll-like receptor 7 [14] = molecular target: T2, Toll-like receptor 7; assay: Agonist activity at TLR7 in human PBMC assessed as IFN-alpha production after 24 hrs by electrochemiluminescence assay; assay type: cell-based

fold change (FC) [1]: 53.7
fold change (FC) [3]: 38.9
EC50 (Toll-like receptor 7 [8]): 1260 nM
fold change (FC) [9]: 108
bioavailability [10]: 12%
EC50 (Toll-like receptor 7 [12]): 15800 nM
EC50 (Toll-like receptor 7 [14]): 7.94 nM
SMILES: CCC[C@H](C)Oc1nc(N)c2[nH]c(=O)n(CCCCCN3CCCCC3)c2n1 [GSK-2245035]
Activity (PBMC [2]): Active
Activity [4]: Toxic
Activity (Rattus norvegicus): Active
Activity [5]: Non-Toxic
Activity (Mus musculus [6]): Active
Activity (Mus musculus [7]): Active
Activity [11]: Toxic
Activity (PBMC [13]): Dose-Dependent Effect
